Laboratory results reported in PMC10299588, “Bromotyrosine-Derived Metabolites from a Marine Sponge Inhibit Pseudomonas aeruginosa Biofilms” (International Journal of Molecular Sciences, 2023).
Converted amounts (≈) assume the structure as drawn.

What was measured:
[1] = test system: PAO1ΔpelF biofilms; type: cell-based, Pseudomonas aeruginosa
Description: (§1) Biofilms of wild-type PAO1 and isogenic biofilm matrix component mutants were treated with ianthelliformisamines or ciprofloxacin alone and the combinations. Their biofilms were simultaneously stained with SYTO9 (green) and propidium iodide (red). Cells with intact membranes were stained green, while cells with compromised membranes were stained red.
(§2) For biofilm bacteria imaging, bacteria were cultured, treated with test compounds, and washed, as previously mentioned in the biofilm inhibition assay. The biofilm bacteria were stained using a LIVE/DEAD BacLight bacterial viability kit (Molecular Probes, Inc., Eugene, OR, USA), which consists of SYTO9 (green; staining cells with intact membrane) and propidium iodide (red; staining cells with compromised membrane). Images were captured using a high-content imaging system Operetta CLS (Perkin Elmer, Waltham, MA, USA) with a 60× water-immersion objective.

[2] = test system: P. aeruginosa; design: method as in PMID 24801877; conditions: previous work, different culture medium and inoculum possible; cited from earlier work
[3] = test system: planktonic P. aeruginosa PAO1; assay: Minimum inhibitory concentration (MIC) determination; type: cell-based, Pseudomonas aeruginosa; conditions: for antimicrobial activity against P. aeruginosa PAO1: up to the highest concentrations applied
Description: The minimum inhibitory concentration (MIC) of compounds and antibiotics were performed as previously described, with minor modification. […] Three antibiotics, including tobramycin, ciprofloxacin, and meropenem, were dissolved in water and filter sterilized. Ten microliters of two-fold serially diluted antibiotics were transferred to a 96-well Costar plate (Corning Inc., Corning, MA, USA) followed by the addition of 90 µL of diluted cultures. After an 18-h incubation at 37 °C in the static condition, optical density OD600 was monitored using a Synergy 2 microplate reader (BioTek, Winooski, VT, USA). […] The MIC was determined as the lowest concentrations of antibiotics that inhibit complete bacterial growth compared to growth control.

[4] = test system: planktonic PAO1; assay: Checkerboard assay with antibiotics; type: cell-based, Pseudomonas aeruginosa; design: MIC of ciprofloxacin reduced to: unit not given beside the values; conditions: for MIC of ciprofloxacin reduced to: in combination with compound; for synergy with ciprofloxacin: planktonic PAO1
Description: The synergistic activity of compounds with antibiotics, including tobramycin, ciprofloxacin and meropenem, was investigated by a checkerboard dilution assay. Briefly, mid-log cultures of P. aeruginosa were diluted 1:1250 before being added to the plates. Next, 90 µL aliquots of diluted cells were added to a 96-well Costar (Corning) plate containing either 10 µL of compounds and/or 10 µL of antibiotics. Compounds and antibiotics were tested at 11 and 7 concentrations, respectively. The first row contained antibiotics alone, while the first column contained compounds alone, and the remaining columns were for combinations.

[5] = test system: PDO300Δalg8 (alginate deletion mutant); assay: Biofilm inhibition assay (OD600 growth and resazurin biofilm viability); type: cell-based, Pseudomonas aeruginosa
Description: (§3) Figure 2 Biofilm assays to identify compounds that prevent biofilm formation. Biofilm inhibition assay. P. aeruginosa cultures were seeded into 384-well plates after dispensing compounds and antibiotics. The plates were incubated for 24 h at 37 °C followed by recording bacterial growth (OD600) and measuring the viability of biofilm bacteria using resazurin.
(§4) The overnight cultures at 37 °C in LB medium were washed once with sterile saline 0.9% (w/v) and adjusted to an OD600 of 0.05, and 1% inoculum was transferred into a fresh LB medium. Following incubation at 37 °C, 200 rpm for 6–6.5 h to reach the mid-log phase, the cells were washed once with sterile saline 0.9% and diluted to an OD600 of 0.01. Then, 45 µL aliquots were dispensed into 384-well plates (Greiner Bio-One, Kremsmünster, Austria, catalog no. 781091). In biofilm inhibition assays, test compounds (5 µL) were loaded prior to the addition of bacteria. The plates were incubated for 24 h at 37 °C in static conditions. The effects of compounds on bacterial growth and viability of biofilm bacteria were determined by the OD600 and resazurin metabolic assay, respectively. The final concentrations of DMSO in the assays were 1–2%. The negative controls or untreated cultures consisted of inoculum and different concentrations of DMSO. Antibiotic ciprofloxacin (0.25 µg/mL and 25 µg/mL) was used as positive controls. The initial OD600 and final OD600 were read before incubation at 37 °C and after 24 h incubation, respectively, followed by assessment of biofilm viability by resazurin metabolic assay. The experiments were carried out with three technical replicates and repeated at least twice. The growth inhibition was calculated as a function of the percentage of the total bacterial inhibition using Equation (1), where AB is the OD600 of LB medium, and AT0 and ATf are the OD600 recorded at inoculating time and at the end of the assay. (1) % Inhibition=100 × [ 1 − [OD600 (Asample Tf− Asample T0)−(AB Tf − AB T0)/OD600 (Anegative control Tf− Anegative control T0)−(AB Tf − AB T0)]]
(§5) Resazurin sodium salt (Sigma-Aldrich, St. Louis, MI, USA) was dissolved in Milli-Q water at 0.2% (w/v) and filter sterilized. The solution was stored at −20 °C in the dark. The assay was performed as previously described with modification. The cultures were withdrawn, and the plates were washed three times with sterile water using the plate washer (BioTek). To remove the remaining water in the wells, the plates were tapped with autoclaved paper towels. An amount of 50 µL of diluted RSZ solution in LB medium was added into each well, followed by incubation at 37 °C for 5–6 h. A microplate reader (BioTek Synergy 2) was used to measure the fluorescence intensity (excitation 530 nm, emission 590 nm). Data collected were determined as a function of fluorescence percentage using Equation (2), where FB is the fluorescence of the diluted RSZ solution in LB medium in the absence of P. aeruginosa cells. (2) % Inhibition=[(Fnegative control −FB )−(Fsample −FB )/(Fnegative control − FB )]×100

[6] = test system: PDO300 (mucoid, alginate-overproducing mutant); assay: as above; type: cell-based, Pseudomonas aeruginosa
Description: as §3, §4, §5

[7] = test system: wild-type P. aeruginosa PAO1; assay: as above; type: cell-based, Pseudomonas aeruginosa
Description: as §3, §4, §5

[8] = test system: PAO1ΔpelF (Pel deletion mutant); assay: as above; type: cell-based, Pseudomonas aeruginosa
Description: as §3, §4, §5

[9] = test system: PAO1 biofilms; assay: Fluorescence microscopy of biofilms (SYTO9/propidium iodide); type: cell-based, Pseudomonas aeruginosa
Description: as §1, §2

[10] = test system: PAO1ΔpslA biofilms; assay: as above; type: cell-based, Pseudomonas aeruginosa
Description: as §1, §2

[11] = test system: PDO300 biofilms; assay: as above; type: cell-based, Pseudomonas aeruginosa; conditions: for biofilm after treatment: compound alone
Description: as §1, §2

[12] = compound 86.2 µg/mL + ciprofloxacin 1/3 MIC (0.083 µg/mL), 24 h
[13] = compound alone (1 86.2, 2 69.1, 3 53.1/106.2 µg/mL)
[14] = in combination with ciprofloxacin
[15] = compound 69.1 µg/mL + ciprofloxacin 1/4 MIC (0.0625 µg/mL)

COc1c(Br)cc(/C=C/C(=O)NCCCNCCCCNCCCN)cc1Br [Compound 1, ianthelliformisamine A]
effect in combination with ciprofloxacin [1]: synergistic effects
MIC [2]: 172.4 µg/mL (≈ 331 µM)
antimicrobial activity against P. aeruginosa PAO1 [3]: no antimicrobial activity
enhancement of the activity of tobramycin or meropenem [4]: did not enhance
MIC of ciprofloxacin reduced to [4]: 1/3
synergy with ciprofloxacin [4]: worked synergistically
activity against biofilm bacteria [5]: < 60%
effect on planktonic counterparts [5]: significant death
biofilm effect ([6]; compound 43.1 µg/mL + ciprofloxacin 1/3 and 1/4 MICs): approximately 100%
biofilm effect ([6]; compound alone at 43.1 µg/mL): 20%
growth inhibition ([6]; compound alone at 43.1 µg/mL and 86.2 µg/mL): > 70%
reduction of biofilm formation ([6]; compound alone at 86.2 µg/mL): ~ 80%
growth disruption [7, 12]: > 90%
prevention of biofilm formation [7, 12]: > 90%
antimicrobial activity / prevention of biofilm formation ([7]; compound alone, 24 h): did not yield any antimicrobial activity and/or prevented biofilm formation
growth disruption [8, 12]: > 90%
prevention of biofilm formation [8, 12]: > 90%
interaction with ciprofloxacin on biofilms [9]: synergistically
biofilm after treatment ([9]; compound 86.2 µg/mL + ciprofloxacin 1/3 MIC): Complete biofilm inhibition
biofilm after treatment [9, 13]: remained unaffected
biofilm after treatment [10, 14]: eradicated
effect in combination with ciprofloxacin [11]: synergistic effects
biofilm after treatment [11]: slightly reduced

COc1c(Br)cc(/C=C/C(=O)NCCCNCCCCN)cc1Br [Compound 2, ianthelliformisamine B]
effect in combination with ciprofloxacin [1]: synergistic effects
MIC [2]: > 138.2 µg/mL
antimicrobial activity against P. aeruginosa PAO1 [3]: no antimicrobial activity
enhancement of the activity of tobramycin or meropenem [4]: did not enhance
MIC of ciprofloxacin reduced to [4]: 1/4
synergy with ciprofloxacin [4]: worked synergistically
survival compromised ([5]; compound + ciprofloxacin at 1/3 MIC): 60%
survival compromised ([5]; compound + ciprofloxacin at 1/4 MIC): 40%
susceptibility of biofilms ([5]; compound + ciprofloxacin at 1/4 and 1/3 MIC): much less susceptible
blockage of cellular progression (growth) ([6]; compound alone): > 50%
blockage of cellular progression (growth) ([6]; in the presence of ciprofloxacin at 1/3 and 1/4 MICs): > 70%
growth inhibition and antibiofilm activity [7, 15]: caused growth inhibition and antibiofilm activity
antimicrobial activity / prevention of biofilm formation ([7]; compound alone, 24 h): did not yield any antimicrobial activity and/or prevented biofilm formation
improvement of biofilm suppression by addition of ciprofloxacin ([8]; ciprofloxacin 1/3 MIC added): 20%
improvement of biofilm suppression by addition of ciprofloxacin ([8]; ciprofloxacin 1/4 MIC added): 13%
growth inhibition and antibiofilm activity [8, 15]: caused growth inhibition and antibiofilm activity
interaction with ciprofloxacin on biofilms [9]: no effect
biofilm after treatment [9, 13]: remained unaffected
biofilm after treatment [10, 14]: eradicated
effect in combination with ciprofloxacin [11]: synergistic effects
biofilm after treatment [11]: slightly reduced

COc1c(Br)cc(/C=C/C(=O)NCCCNCCCCNCCCNC(=O)/C=C/c2cc(Br)c(OC)c(Br)c2)cc1Br [Compound 3, ianthelliformisamine C]
effect in combination with ciprofloxacin [1]: no effect
biofilm after treatment ([1]; compound alone): no effect
MIC [2]: ~ 26.55 µg/mL
MIC ([3]; Pseudomonas aeruginosa, planktonic (free-living) PAO1, LB medium, 18 h, 37 °C): 53.1 µg/mL
synergy with ciprofloxacin [4]: limited synergy
effect on free-living cells ([5]; compound alone): eradicated
reduction of biofilm viability ([5]; compound alone): 80%
effect on free-living cells ([6]; compound alone): eradicated
reduction of biofilm viability ([6]; compound alone): ~ 100%
synergistic interaction with ciprofloxacin, planktonic forms and biofilms ([7]; compound 53.1 µg/mL): negligible synergistic interactions
planktonic growth inhibition ([7]; compound alone 106.2 µg/mL): independently inhibited planktonic growth
killing of biofilm bacteria ([7]; compound alone, 24 h): ≤ 60%
killing of free-living bacteria ([7]; compound alone, 24 h): up to 30%
biofilm response (reduction) ([8]; combinations of compound with ciprofloxacin): ~ 60%
synergistic interaction with ciprofloxacin, planktonic forms and biofilms ([8]; compound 53.1 µg/mL): negligible synergistic interactions
interaction with ciprofloxacin on biofilm ([8]; compound 106.2 µg/mL, ciprofloxacin 1/4 MIC): antagonized
biofilm response (reduction) ([8]; compound alone 106.2 µg/mL): ~ 40%
planktonic growth inhibition ([8]; compound alone 106.2 µg/mL): independently inhibited planktonic growth
interaction with ciprofloxacin on biofilms [9]: antagonistically
biofilm after treatment [9, 13]: slightly reduced
biofilm after treatment ([10]; alone): completely dispersed the biofilm
biofilm after treatment [11]: completely eradicated
